Data reported in US7348359B2, “Retinoid X receptor modulators” (Eli Lilly and Company, priority 2001, dated 2008).

How the values were obtained:
[1] = target: T1, RXR:PPARγ (Homo sapiens, UniProt P19793); assay: RXR:PPARγ synergy with BRL49653 in CV-1 cells; assay type: cell-based; conditions: maximal response in presence of 100 nM BRL49653 (RXR:PPARγ) relative to maximal response of BRL49653 alone
T1 construct: host or cells: CV-1
T1 sequence (P19793 1-462): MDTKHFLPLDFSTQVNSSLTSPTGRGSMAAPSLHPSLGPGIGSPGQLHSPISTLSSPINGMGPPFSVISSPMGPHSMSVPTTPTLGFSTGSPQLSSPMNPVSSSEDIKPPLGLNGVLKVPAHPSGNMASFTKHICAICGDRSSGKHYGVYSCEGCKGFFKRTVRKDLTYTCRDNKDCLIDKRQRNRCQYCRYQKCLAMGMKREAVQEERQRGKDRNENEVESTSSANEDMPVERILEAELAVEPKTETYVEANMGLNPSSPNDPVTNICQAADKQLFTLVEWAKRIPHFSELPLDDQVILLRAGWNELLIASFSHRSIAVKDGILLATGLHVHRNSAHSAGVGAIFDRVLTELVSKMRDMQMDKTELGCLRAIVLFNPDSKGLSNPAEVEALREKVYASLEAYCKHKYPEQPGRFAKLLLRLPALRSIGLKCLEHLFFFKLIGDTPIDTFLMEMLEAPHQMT
T1 sequence (P37231 1-505 partner): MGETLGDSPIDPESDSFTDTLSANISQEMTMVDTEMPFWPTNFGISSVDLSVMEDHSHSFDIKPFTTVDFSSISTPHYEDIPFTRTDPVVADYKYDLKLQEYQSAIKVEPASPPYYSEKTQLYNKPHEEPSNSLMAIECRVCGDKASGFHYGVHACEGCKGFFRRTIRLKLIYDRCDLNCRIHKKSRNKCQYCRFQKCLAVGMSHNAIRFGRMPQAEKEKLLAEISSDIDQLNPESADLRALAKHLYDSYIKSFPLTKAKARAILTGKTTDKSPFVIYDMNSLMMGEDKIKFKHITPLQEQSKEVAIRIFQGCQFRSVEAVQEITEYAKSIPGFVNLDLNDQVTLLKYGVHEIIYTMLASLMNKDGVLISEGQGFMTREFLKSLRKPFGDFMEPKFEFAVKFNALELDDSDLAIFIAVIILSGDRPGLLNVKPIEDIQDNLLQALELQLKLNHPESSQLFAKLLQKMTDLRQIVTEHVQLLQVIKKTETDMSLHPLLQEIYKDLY

[2] = tested on: db/db mouse; assay: db/db mouse plasma glucose and triglycerides, oral gavage; assay type: in vivo; conditions: for db/db mouse Glu. (D 7): plasma glucose as a % correction relative to lean values on day 7 of treatment with 30 mg/kg/day; for db/db mouse Trigs. (D 3): plasma triglycerides as a % of control values on day 3 of treatment with 30 mg/kg/day
[3] = target: T2, RXR:RAR (Homo sapiens, UniProt P19793); assay: RXR:RAR agonist efficacy in CV-1 cells; assay type: cell-based; conditions: for RXR:RAR CV-1 (%) Ag.: maximal response relative to maximal response of ATRA; for activation of RXR:RAR heterodimers: statement on Table 1
T2 construct: host or cells: CV-1
T2 sequence (P19793 1-462): T1 sequence (P19793 1-462)
T2 sequence (P10276 1-462 partner): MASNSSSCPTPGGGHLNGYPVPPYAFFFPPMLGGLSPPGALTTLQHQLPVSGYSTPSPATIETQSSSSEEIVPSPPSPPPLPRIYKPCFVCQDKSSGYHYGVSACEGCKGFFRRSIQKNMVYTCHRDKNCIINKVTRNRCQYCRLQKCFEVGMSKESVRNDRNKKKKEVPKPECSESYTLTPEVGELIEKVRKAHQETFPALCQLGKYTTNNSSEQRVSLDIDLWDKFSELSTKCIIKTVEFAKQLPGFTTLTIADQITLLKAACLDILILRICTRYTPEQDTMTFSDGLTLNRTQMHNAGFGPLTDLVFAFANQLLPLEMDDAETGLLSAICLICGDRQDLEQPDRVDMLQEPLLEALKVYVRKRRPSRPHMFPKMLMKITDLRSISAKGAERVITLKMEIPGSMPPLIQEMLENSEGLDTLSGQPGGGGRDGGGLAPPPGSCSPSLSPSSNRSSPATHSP

[4] = target: T3, RXR α (Homo sapiens, UniProt P19793); assay: RXR α binding, Ki from IC50 by Cheng-Prussof equation using tritiated LGD1069; conditions: determined from IC50 values by the Cheng-Prussof equation using tritiated LGD1069; read-out: Bind RXR α Ki
T3 sequence (P19793 1-462): T1 sequence (P19793 1-462)

[5] = target: T4, RXR:RXR (Homo sapiens, UniProt P19793); assay: RXR:RXR agonist/antagonist efficacy in CV-1 cells; assay type: cell-based; conditions: for RXR:RXR CV-1 (%) Antag: maximal repression (100%) in the presence of 32 nM LGD1069; for RXR:RXR CV-1 (%) Ag: maximal response relative to maximal response of ATRA
T4 construct: host or cells: CV-1
T4 sequence (P19793 1-462): T1 sequence (P19793 1-462)

[6] = tested on: transgenic mice carrying the human apo A-I gene; assay: Mice transgenic for the human apolipoprotein A-I gene: HDL cholesterol and triglycerides; assay type: in vivo; conditions: transgenic mouse model; Table 1
Source text: Mice transgenic for the human apolipoprotein A-I gene (obtained from Jackson Laboratory) were used to evaluate PPARα mediated effects on high density lipoprotein (HDL) cholesterol. The mice were handled as described above for db/db mice, except that they were fed Purina 5001.
When administered to transgenic mice carrying the human apo A-I gene, compounds of the invention are expected to increase HDL cholesterol. […] This effect is consistent with activation of PPARα and, in fact, in vivo these compounds synergize with the weak PPARα agonist fenofibrate.

[7] = tested on: rodent models of NIDDM; assay: Rodent models of NIDDM, effects of full RXR homodimer agonists
Method: All animal experiments were conducted in a United States Department of Agriculture registered facility in accordance with NIH guidelines for the care and use of laboratory animals. Mice (obtained from Jackson Laboratory), ZDF rats (obtained from Genetic Models Inc.) and fa/fa rats (obtained from either Charles River, or Harlan) were maintained on 12-hour light/dark cycle. Mice (age 28-42 days) were caged in groups of 5-6. Rats (age 7 weeks) were housed individually. […] Compounds were administered at the specified doses by oral gavage on the morning of each day of any experiment. Blood samples were obtained 3 hours after dosing from fed animals under anesthesia and collected into heparinized capillary tubes from the tail vein.

melting point [°C] | SMILES | PPARγ CV-1 (%) Synergy [1] [%] | db/db mouse Glu. (D 7) [2] [%] | db/db mouse Trigs. (D 3) [2] [%] | RXR:RAR CV-1 (%) Ag. [3] [%] | activation of RXR:RAR heterodimers [3] | Ki [4] [nM] | RXR:RXR CV-1 (%) Antag [5] [%] | RXR:RXR CV-1 (%) Ag [5] [%] | triglycerides [6] | further results
– | CCCOc1c(-c2cccc3sc(/C(C)=C/C(=O)O)cc23)cc(C(C)C)cc1C(C)C [Ex. 15] | 109 | 20 | 98 | 6 | do not activate RXR:RAR heterodimers | 14 | 81 | 4 | do not raise triglycerides | –
105 to 115 | CCCOc1c(-c2c[nH]c3ccc(/C(C)=C/C(=O)O)cc23)cc(C(C)(C)C)cc1C(C)(C)C [Example 63, 3-[3-(3,5-Di-tert-butyl-2-propoxy-phenyl)-1H-indol-5-yl]-but-2-enoic acid] | – | – | – | – | – | – | – | – | – | –
146 to 153 | C/C(=C\C(=O)O)c1ccc2[nH]cc(-c3cc(C(C)(C)C)cc(C(C)(C)C)c3OCC(F)(F)F)c2c1 [Example 65, 3-{3-[3,5-Di-tert-butyl-2-(2,2,2-trifluoro-ethoxy)-phenyl]-1H-indol-5-yl}-but-2-enoic acid] | – | – | – | – | – | – | – | – | – | –
– | CCOc1c(-c2cccc3cc(/C(C)=C/C(=O)O)oc23)cc(C(C)C)cc1C(C)C [Ex. 5, 3-[7-(2-Ethoxy-3,5-diisopropylphenyl)-benzo[b]furan-2-yl]-but-2-enoic acid] | 140 | 17 | 104 | 3 | do not activate RXR:RAR heterodimers | 22 | 10 | 33 | do not raise triglycerides | –
– | Cc1cc2c(cc1C1(c3ccc(C(=O)O)cn3)CC1)C(C)(C)CCC2(C)C [LG100268] | – | 73 | 195 | – | – | – | – | – | raises triglycerides | blood glucose levels [7]: lower blood glucose levels; thyroid hormone axis [7]: suppress the thyroid hormone axis; triglycerides [7]: raise triglycerides
– | C/C(=C\C(=O)O)c1cc2c(-c3cc(C(C)(C)C)cc(C(C)(C)C)c3OCC(F)F)cccc2s1 [Ex. 14, 3-{4-[2-(2,2-Difluoroethoxy)-3,5-di-tert-butylphenyl]-benzo[b]thien-2-yl}-but-2-enoic acid] | 67 | 35 | 139 | 2 | do not activate RXR:RAR heterodimers | 12 | 79 | 1 | do not raise triglycerides | –
135 to 145 | C/C(=C\C(=O)O)c1ccc2[nH]cc(-c3cc(C(C)(C)C)cc(C(C)(C)C)c3OCC(F)F)c2c1 [Example 64, 3-{3-[3,5-Di-tert-butyl-2-(2,2-difluro-ethoxy)-phenyl]-1H-indol-5-yl}-but-2-enoic acid] | – | – | – | – | – | – | – | – | – | –
– | CCCCOc1c(-c2c(F)ccc3sc(/C(C)=C/C(=O)O)cc23)cc(C(C)C)cc1C(C)C [Ex. 18, (E)-3-[4-(2-n-Butoxy-3,5-di-iso-propylphenyl)-5-fluorobenzo[b]thien-2-yl]-but-2-enoic acid] | 40 | 38 | 105 | 4 | do not activate RXR:RAR heterodimers | 54 | 86 | 1 | do not raise triglycerides | –
– | CN(C)C(=N)N=C(N)N [metformin, reference compound] | – | – | – | – | – | – | – | – | – | plasma glucose ([2]; 7 week old db/db mice, 300 mg/kg by daily oral gavage, maximum effect after first week, efficacy decreases over 3 subsequent weeks): lowers plasma glucose

SMILES | melting point [°C] | PPARγ CV-1 (%) Synergy [1] [%] | db/db mouse Glu. (D 7) [2] [%] | db/db mouse Trigs. (D 3) [2] [%] | RXR:RAR CV-1 (%) Ag. [3] [%] | activation of RXR:RAR heterodimers [3] | Ki [4] [nM] | RXR:RXR CV-1 (%) Antag [5] [%] | RXR:RXR CV-1 (%) Ag [5] [%] | triglycerides [6] | further results
CCCCOc1c(-c2nccc3ccc(/C(C)=C/C(=O)O)cc23)cc(C(C)C)cc1C(C)C [Example 53, 3-[1-(2-Butoxy-3,5-diisopropyl-phenyl)-isoquinolin-7-yl]-but-2(E)-enoic acid] | 149.8 | – | – | – | – | – | – | – | – | – | –
CCCCOc1c(-c2ccnc3ccc(/C(C)=C/C(=O)O)cc23)cc(C(C)C)cc1C(C)C [Example 54, 3-[4-(2-Butoxy-3,5-diisopropyl-phenyl)quinolin-6-yl]-but-2(E)-enoic acid] | 195.3 | – | – | – | – | – | – | – | – | – | –
